Test results from ChEMBL document CHEMBL6153110, “Peptide Double-Stapling and Arginine N-Glycosylation Triggered the Development of Therapeutic Antimicrobial Peptides Capable of Killing Drug-Resistant Bacteria in Mice” (J Med Chem, 2025).
Values after ≈ are worked out from the molar mass of the structure shown. Positions of bridges follow the written chain, without caps; N, C: chain ends. Non-standard residues stand in square brackets, D forms with d. Residues, ends and D or L forms follow the SMILES beside them. R8 = C=CCCCCCC[C@@](C)(N)C(=O)O; S5 = C=CCCC[C@](C)(N)C(=O)O; Abu = CC[C@H](N)C(=O)O

Experiments:
Klebsiella pneumoniae = assay: Antimicrobial activity against Klebsiella pneumoniae ATCC 13883 assessed as growth inhibition measured after 8 hrs incubation by standard broth dilution assay; format: functional
Staphylococcus aureus = assay: Antimicrobial activity against methicillin-resistant Staphylococcus aureus ATCC 43300 assessed as growth inhibition measured after 8 hrs incubation by standard broth dilution assay; format: functional
Pseudomonas aeruginosa = assay: Antimicrobial activity against Pseudomonas aeruginosa ATCC 27853 assessed as growth inhibition measured after 8 hrs incubation by standard broth dilution assay; format: functional
Streptococcus pneumoniae = assay: Antimicrobial activity against Streptococcus pneumoniae ATCC 49619 assessed as growth inhibition measured after 8 hrs incubation by standard broth dilution assay; format: functional
[1] = Hemolytic activity in BALB/c mouse red blood cells assessed as hemolysis incubated for 1 hrs; format: toxicity, cell-based, Erythrocyte; conditions: read-out: HD50

Compound | MIC (Klebsiella pneumoniae) [µg/mL] | MIC (Staphylococcus aureus) [µg/mL] | MIC (Pseudomonas aeruginosa) [µg/mL] | MIC (Streptococcus pneumoniae) [µg/mL] | HC50 at 1 h [1] [µg/mL]
CC(=O)N[C@@H](CC(C)C)C(=O)N[C@@H](CCCCN)C(=O)N[C@@H](CCCNC(=N)N)C(=O)N[C@H](C(=O)N[C@@H](Cc1c[nH]c2ccccc12)C(=O)N[C@@H](CCCCN)C(=O)N[C@@H](CCCNC(=N)N)C(=O)N[C@H](C(=O)N[C@@H](Cc1ccccc1)C(=O)N[C@@H](CCCCN)C(=O)N[C@@H](CC(C)C)C(=O)N[C@@H](CC(C)C)C(=O)N[C@@H](CCCCN)C(=O)N[C@@]1(C)CCC/C=C\CCC[C@@](C)(C(=O)N[C@@H](CC(C)C)C(=O)N[C@@H](CCCCN)C(=O)N[C@@H](CCCCN)C(=O)N[C@@H](CCCCN)C(=O)N[C@H](C(=O)N[C@@H](CCCNC(=N)N)C(N)=O)C(C)C)NC(=O)[C@H](CCCNC(=N)N)NC(=O)[C@H](Cc2c[nH]c3ccccc23)NC(=O)[C@H](Cc2ccc(O)cc2)NC1=O)C(C)C)C(C)C (Ac-LKRVWKRVFKLLK[S5]YWR[S5]LKKKVR-NH2; staple (Z) 14-18) | 10.1 (≈ 3.09 µM) | 4.9 (≈ 1.5 µM) | 5 (≈ 1.53 µM) | 4.7 (≈ 1.44 µM) | 13.1
CC(=O)N[C@@H](CC(C)C)C(=O)N[C@@H](CCCCN)C(=O)N[C@@H](CCCNC(=N)N)C(=O)N[C@H](C(=O)N[C@@H](CCCCN)C(=O)N[C@@H](CCCCN)C(=O)N[C@@H](CCCNC(=N)N)C(=O)N[C@H](C(=O)N[C@@H](Cc1ccccc1)C(=O)N[C@@H](CCCCN)C(=O)N[C@@H](CC(C)C)C(=O)N[C@@H](CC(C)C)C(=O)N[C@@H](CCCCN)C(=O)N[C@@]1(C)CCC/C=C\CCC[C@@](C)(C(=O)N[C@@H](CC(C)C)C(=O)N[C@@H](CCCCN)C(=O)N[C@@H](CCCCN)C(=O)N2CCC[C@H]2C(=O)N[C@H](C(=O)N[C@@H](CCCNC(=N)N)C(N)=O)C(C)C)NC(=O)[C@H](CCCNC(=N)N)NC(=O)[C@H](Cc2c[nH]c3ccccc23)NC(=O)[C@H](Cc2ccc(O)cc2)NC1=O)C(C)C)C(C)C (Ac-LKRVKKRVFKLLK[S5]YWR[S5]LKKPVR-NH2; staple (Z) 14-18) | 10.1 (≈ 3.18 µM) | 19 (≈ 5.98 µM) | 5 (≈ 1.57 µM) | 4.7 (≈ 1.48 µM) | 15.3
CC[C@@H]1NC(=O)[C@H](Cc2ccccc2)NC(=O)[C@H](C(C)C)NC(=O)[C@@](C)(NC(=O)[C@H](CCCCN)NC(=O)[C@H](Cc2c[nH]c3ccccc23)NC(=O)[C@@H](NC(=O)[C@H](CCCNC(=N)N)NC(=O)[C@H](CCCCN)NC(=O)[C@H](CC(C)C)NC(C)=O)C(C)C)CCC/C=C\CCC[C@@](C)(C(=O)N[C@@H](CC(C)C)C(=O)N[C@@H](CCCCN)C(=O)N[C@@H](CCCNC(=N)N)C(=O)N[C@@H](Cc2ccc(O)cc2)C(=O)N[C@@H](Cc2c[nH]c3ccccc23)C(=O)N[C@@H](CCCNC(=N)N)C(=O)N[C@@H](CCC(N)=O)C(=O)N[C@@H](CC(C)C)C(=O)N[C@@H](CCCCN)C(=O)N[C@@H](CCCCN)C(=O)N2CCC[C@H]2C(=O)N[C@H](C(=O)N[C@@H](CCCNC(=N)N)C(N)=O)C(C)C)NC1=O (Ac-LKRVWK[S5]VF[Abu][S5]LKRYWRQLKKPVR-NH2; staple (Z) 7-11) | 4.9 (≈ 1.53 µM) | 2.5 (≈ 0.78 µM) | 5 (≈ 1.56 µM) | 19 (≈ 5.93 µM) | –
CC(=O)N[C@@H](CC(C)C)C(=O)N[C@@H](CCCCN)C(=O)N[C@@H](CCCNC(=N)N)C(=O)N[C@H](C(=O)N[C@@H](Cc1c[nH]c2ccccc12)C(=O)N[C@@H](CCCCN)C(=O)N[C@@H](CCCNC(=N)N)C(=O)N[C@H](C(=O)N[C@@H](Cc1ccccc1)C(=O)N[C@@H](CCCCN)C(=O)N[C@]1(C)CCCCCC/C=C\CCC[C@@](C)(C(=O)N[C@@H](CC(C)C)C(=O)N[C@@H](CCCCN)C(=O)N[C@@H](CCCCN)C(=O)N2CCC[C@H]2C(=O)N[C@H](C(=O)N[C@@H](CCCNC(=N)N)C(N)=O)C(C)C)NC(=O)[C@H](CCCNC(=N)N)NC(=O)[C@H](Cc2c[nH]c3ccccc23)NC(=O)[C@H](Cc2ccc(O)cc2)NC(=O)[C@H](CCCNC(=N)N)NC(=O)[C@H](CCCCN)NC(=O)[C@H](CC(C)C)NC1=O)C(C)C)C(C)C (Ac-LKRVWKRVFK[R8]LKRYWR[S5]LKKPVR-NH2; staple (Z) 11-18) | 4.9 (≈ 1.48 µM) | 9.7 (≈ 2.92 µM) | 5 (≈ 1.51 µM) | 37.7 (≈ 11.4 µM) | –
CC(=O)N[C@@H](CC(C)C)C(=O)N[C@@H](CCCCN)C(=O)N[C@@H](CCCNC(=N)N)C(=O)N[C@H](C(=O)N[C@@H](Cc1c[nH]c2ccccc12)C(=O)N[C@@H](CCCCN)C(=O)N[C@@H](CCCNC(=N)N)C(=O)N[C@H](C(=O)N[C@@H](Cc1ccccc1)C(=O)N[C@@H](CCCCN)C(=O)N[C@@H](CC(C)C)C(=O)N[C@@H](CC(C)C)C(=O)N[C@@H](CCCCN)C(=O)N[C@@H](CCCNC(=N)N)C(=O)N[C@@H](Cc1ccc(O)cc1)C(=O)N[C@@H](Cc1c[nH]c2ccccc12)C(=O)N[C@@H](CCCNC(=N)N)C(=O)N[C@@H](CCC(N)=O)C(=O)N[C@@]1(C)CCC/C=C\CCC[C@@](C)(C(=O)N[C@@H](CCCNC(=N)N)C(N)=O)NC(=O)[C@@H]2CCCN2C(=O)[C@H](CCCCN)NC(=O)[C@H](CCCCN)NC1=O)C(C)C)C(C)C (Ac-LKRVWKRVFKLLKRYWRQ[S5]KKP[S5]R-NH2; staple (Z) 19-23) | 38 (≈ 11.5 µM) | 19.1 (≈ 5.78 µM) | 5 (≈ 1.51 µM) | 9.6 (≈ 2.9 µM) | –
CC(=O)N[C@@H](CC(C)C)C(=O)N[C@@H](CCCCN)C(=O)N[C@@H](CCCNC(=N)N)C(=O)N[C@]1(C)CCCCCC/C=C\CCC[C@@](C)(C(=O)N[C@@H](CC(C)C)C(=O)N[C@@H](CCCCN)C(=O)N[C@@H](CCCNC(=N)N)C(=O)N[C@@H](Cc2ccc(O)cc2)C(=O)N[C@@H](Cc2c[nH]c3ccccc23)C(=O)N[C@@H](CCCNC(=N)N)C(=O)N[C@@H](CCC(N)=O)C(=O)N[C@@H](CC(C)C)C(=O)N[C@@H](CCCCN)C(=O)N[C@@H](CCCCN)C(=O)N2CCC[C@H]2C(=O)N[C@H](C(=O)N[C@@H](CCCNC(=N)N)C(N)=O)C(C)C)NC(=O)[C@H](CCCCN)NC(=O)[C@H](Cc2ccccc2)NC(=O)[C@H](C(C)C)NC(=O)[C@H](CCCNC(=N)N)NC(=O)[C@H](CCCCN)NC(=O)[C@H](Cc2c[nH]c3ccccc23)NC1=O (Ac-LKR[R8]WKRVFK[S5]LKRYWRQLKKPVR-NH2; staple (Z) 4-11) | 38 (≈ 11.4 µM) | 4.9 (≈ 1.46 µM) | 5 (≈ 1.49 µM) | 37.7 (≈ 11.3 µM) | –
CC(=O)N[C@@H](CC(C)C)C(=O)N[C@@H](CCCCN)C(=O)N[C@@H](CCCNC(=N)N)C(=O)N[C@H](C(=O)N[C@@H](Cc1c[nH]c2ccccc12)C(=O)N[C@@H](CCCCN)C(=O)N[C@@H](CCCNC(=N)N)C(=O)N[C@H](C(=O)N[C@]1(C)CCCCCC/C=C\CCC[C@@](C)(C(=O)N[C@@H](CCCNC(=N)N)C(=O)N[C@@H](CCC(N)=O)C(=O)N[C@@H](CC(C)C)C(=O)N[C@@H](CCCCN)C(=O)N[C@@H](CCCCN)C(=O)N2CCC[C@H]2C(=O)N[C@H](C(=O)N[C@@H](CCCNC(=N)N)C(N)=O)C(C)C)NC(=O)[C@H](Cc2ccc(O)cc2)NC(=O)[C@H](CCCNC(=N)N)NC(=O)[C@H](CCCCN)NC(=O)[C@H](CC(C)C)NC(=O)[C@H](CC(C)C)NC(=O)[C@H](CCCCN)NC1=O)C(C)C)C(C)C (Ac-LKRVWKRV[R8]KLLKRY[S5]RQLKKPVR-NH2; staple (Z) 9-16) | 38 (≈ 11.8 µM) | 9.7 (≈ 3.01 µM) | 38 (≈ 11.8 µM) | 9.6 (≈ 2.98 µM) | –
CC(=O)N[C@@H](CC(C)C)C(=O)N[C@@H](CCCCN)C(=O)N[C@@H](CCCNC(=N)N)C(=O)N[C@H](C(=O)N[C@@H](Cc1c[nH]c2ccccc12)C(=O)N[C@@H](CCCCN)C(=O)N[C@@H](CCCNC(=N)N)C(=O)N[C@]1(C)CCCCCC/C=C\CCC[C@@](C)(C(=O)N[C@@H](Cc2c[nH]c3ccccc23)C(=O)N[C@@H](CCCNC(=N)N)C(=O)N[C@@H](CCC(N)=O)C(=O)N[C@@H](CC(C)C)C(=O)N[C@@H](CCCCN)C(=O)N[C@@H](CCCCN)C(=O)N2CCC[C@H]2C(=O)N[C@H](C(=O)N[C@@H](CCCNC(=N)N)C(N)=O)C(C)C)NC(=O)[C@H](CCCNC(=N)N)NC(=O)[C@H](CCCCN)NC(=O)[C@H](CC(C)C)NC(=O)[C@H](CC(C)C)NC(=O)[C@H](CCCCN)NC(=O)[C@H](Cc2ccccc2)NC1=O)C(C)C (Ac-LKRVWKR[R8]FKLLKR[S5]WRQLKKPVR-NH2; staple (Z) 8-15) | 38 (≈ 11.5 µM) | 9.7 (≈ 2.94 µM) | 5 (≈ 1.52 µM) | 19 (≈ 5.76 µM) | –
CC(=O)N[C@@H](CC(C)C)C(=O)N[C@]1(C)CCCCCC/C=C\CCC[C@@](C)(C(=O)N[C@@H](CCCCN)C(=O)N[C@@H](CC(C)C)C(=O)N[C@@H](CC(C)C)C(=O)N[C@@H](CCCCN)C(=O)N[C@@H](CCCNC(=N)N)C(=O)N[C@@H](Cc2ccc(O)cc2)C(=O)N[C@@H](Cc2c[nH]c3ccccc23)C(=O)N[C@@H](CCCNC(=N)N)C(=O)N[C@@H](CCC(N)=O)C(=O)N[C@@H](CC(C)C)C(=O)N[C@@H](CCCCN)C(=O)N[C@@H](CCCCN)C(=O)N2CCC[C@H]2C(=O)N[C@H](C(=O)N[C@@H](CCCNC(=N)N)C(N)=O)C(C)C)NC(=O)[C@H](C(C)C)NC(=O)[C@H](CCCNC(=N)N)NC(=O)[C@H](CCCCN)NC(=O)[C@H](Cc2c[nH]c3ccccc23)NC(=O)[C@H](C(C)C)NC(=O)[C@H](CCCNC(=N)N)NC1=O (Ac-L[R8]RVWKRV[S5]KLLKRYWRQLKKPVR-NH2; staple (Z) 2-9) | 38 (≈ 11.6 µM) | 9.7 (≈ 2.95 µM) | 9.8 (≈ 2.98 µM) | 37.7 (≈ 11.5 µM) | –
CC(=O)N[C@@H](CC(C)C)C(=O)N[C@@H](CCCCN)C(=O)N[C@@H](CCCNC(=N)N)C(=O)N[C@H](C(=O)N[C@@H](Cc1c[nH]c2ccccc12)C(=O)N[C@@H](CCCCN)C(=O)N[C@@H](CCCNC(=N)N)C(=O)N[C@@]1(C)CCC/C=C\CCC[C@@](C)(C(=O)N[C@@H](CCCCN)C(=O)N[C@@H](CCCNC(=N)N)C(=O)N[C@@H](Cc2ccc(O)cc2)C(=O)N[C@@H](Cc2c[nH]c3ccccc23)C(=O)N[C@@H](CCCNC(=N)N)C(=O)N[C@@H](CCC(N)=O)C(=O)N[C@@H](CC(C)C)C(=O)N[C@@H](CCCCN)C(=O)N[C@@H](CCCCN)C(=O)N2CCC[C@H]2C(=O)N[C@H](C(=O)N[C@@H](CCCNC(=N)N)C(N)=O)C(C)C)NC(=O)[C@H](CC(C)C)NC(=O)[C@H](CCCCN)NC(=O)[C@H](Cc2ccccc2)NC1=O)C(C)C (Ac-LKRVWKR[S5]FKL[S5]KRYWRQLKKPVR-NH2; staple (Z) 8-12) | 38 (≈ 11.5 µM) | 2.5 (≈ 0.756 µM) | 5 (≈ 1.51 µM) | 37.7 (≈ 11.4 µM) | –
